Tests used:
[1] = system: panicum, fall (fall panicum, Panicum dichotomiflorum); test: Test E pre-/postemergence: panicum, fall; type: in vivo; details: scale 0 to 100
From the text: Seeds of plant species selected from corn (Zea mays), soybean (Glycine max), velvetleaf (Abutilon theophrasti), lambsquarters (Chenopodium album), poinsettia, wild (wild poinsettia, Euphorbia heterophylla), pigweed, palmer (palmer pigweed, Amaranthus palmeri), waterhemp (common waterhemp, Amaranthus rudis), smartweed (ladysthumb smartweed, Polygonum persicaria), surinam grass (Brachiaria decumbens), crabgrass, large (large crabgrass, Digitaria sanguinalis), crabgrass, Brazil (Brazilian crabgrass, Digitaria horizontalis), panicum, fall (fall panicum, Panicum dichotomiflorum), foxtail, giant (giant foxtail, Setaria faberii), foxtail, green (green foxtail, Setaria viridis), goosegrass (Eleusine indica), johnsongrass (Sorghum halepense), ragweed (common ragweed, Ambrosia elation), barnyardgrass (Echinochloa crus-galli), sandbur (southern sandbur, Cenchrus echinatus), arrowleaf sida (Sida rhombifolia), ryegrass, Italian (Italian ryegrass, Lolium multiflorum), dayflower, (VA) (Virginia dayflower, Commelina virginica), field bindweed (Convolvulus arvensis), cocklebur (common cocklebur, Xanthium strumarium), morningglory (Ipomoea coccinea), nightshade (eastern black nightshade, Solanum ptycanthum), kochia (Kochia scoparia), nutsedge, yellow (yellow nutsedge, Cyperus esculentus) and beggarticks (hairy beggarticks, Bidens pilosa) were planted into a silt loam soil and treated preemergence with test chemicals formulated in a non-phytotoxic solvent mixture which included a surfactant. At the same time, plants selected from these crop and weed species were planted in pots containing a growing medium comprising spaghnum peat moss, vermiculite, wetting agent and starter nutrients and treated with postemergence applications of some of the test chemicals formulated in the same manner. Plants ranged in height from 2 to 18 cm for postemergence treatments (1- to 4-leaf stage).
(§1) Treated plants and controls were maintained in a greenhouse for 14 to 21 days, after which time all species were compared to controls and visually evaluated. Plant response ratings, summarized in Table E, are based on a scale of 0 to 100 where 0 is no effect and 100 is complete control. A dash (-) response means no test result.

[2] = system: barnyardgrass (Echinochloa crus-galli); test: Test F pre-/postemergence: barnyardgrass; type: in vivo
From the text: (§2) Seeds of plant species selected from corn (Zea mays), soybean (Glycine max), velvetleaf (Abutilon theophrasti), lambsquarters (Chenopodium album), poinsettia, wild (wild poinsettia, Euphorbia heterophylla), pigweed, palmer (palmer pigweed, Amaranthus palmeri), waterhemp (common waterhemp, Amaranthus rudis), surinam grass (Brachiaria decumbens), crabgrass, Brazil (Brazilian crabgrass, Digitaria horizontalis), panicum, fall (fall panicum Panicum dichotomiflorum), crabgrass, large (large crabgrass, Digitaria sanguinalis), foxtail, giant (giant foxtail, Setaria faberii), foxtail, green (green foxtail Setaria viridis), goosegrass (Eleusine indica), ragweed (common ragweed, Ambrosia elatior), barnyardgrass (Echinochloa crus-galli), sandbur (southern sandbur, Cenchrus echinatus), arrowleaf sida (Sida rhombifolia), ryegrass, Italian (Italian ryegrass, Lolium multiflorum), dayflower, VA (Virginia (VA) dayflower, Commelina virginica), field bindweed (Convolvulus arvensis), cocklebur (common cocklebur, Xanthium strumarium), morningglory (Ipomoea coccinea), nightshade (eastern black nightshade, Solanum ptycanthum), kochia (Kochia scoparia), nutsedge, yellow (yellow nutsedge, Cyperus esculentus), johnsongrass (Sorghum halepense), smartweed (ladysthumb smartweed, Polygonum persicaria), and beggarticks (hairy beggarticks, Bidens pilosa), were planted into a silt loam soil and treated preemergence with test chemicals formulated in a non-phytotoxic solvent mixture which included a surfactant. At the same time, plants selected from these crop and weed species and also pigweed (Amaranthus retroflexus), waterhemp_RES1 (ALS/Triazine resistant common waterhemp, Amaranthus rudis) and waterhemp_RES2 (ALS/HPPD resistant common waterhemp, Amaranthus rudis) were planted in pots containing a planting medium comprising spaghnum peat moss, vermiculite, wetting agent and starter nutrients treated with postemergence applications of some of the test chemicals formulated in the same manner. Plants ranged in height from 2 to 18 cm for postemergence treatments (1- to 4-leaf stage).
as §1

[3] = system: crabgrass, Brazil (Brazilian crabgrass, Digitaria horizontalis); test: Test F pre-/postemergence: crabgrass, Brazil; type: in vivo
From the text: as §2, §1

[4] = system: Oilseed Rape; test: Test C pre-/postemergence: oilseed rape; type: in vivo
From the text: (§3) Seeds of plant species selected from blackgrass (Alopecurus myosuroides), bromegrass, downy (downy bromegrass, Bromus tectorum), foxtail, green (green foxtail, Setaria viridis), ryegrass, Italian (Italian ryegrass, Lolium multiflorum), winter wheat (Triticum aestivum), wild oat (Avena fatua), galium (catchweed bedstraw, Galium aparine), bermudagrass (Cynodon dactylon), surinam grass (Brachiaria decumbens), cocklebur (common cocklebur, Xanthium strumarium), corn (Zea mays), large crabgrass (Digitaria sanguinalis), woolly cupgrass (Eriochloa villosa), foxtail, giant (giant foxtail, Setaria faberii), goosegrass (Eleusine indica), johnsongrass (Sorghum halepense), kochia (Kochia scoparia), lambsquarters (Chenopodium album), morningglory (Ipomoea coccinea), nightshade (eastern black nightshade, Solanum ptycanthum), nutsedge, yellow (yellow nutsedge, Cyperus esculentus), pigweed (Amaranthus retroflexus), ragweed (common ragweed, Ambrosia elation), soybean (Glycine max), common (oilseed) sunflower (Helianthus annuus), Russian thistle (Salsola kali) and velvetleaf (Abutilon theophrasti) were planted into a blend of loam soil and sand and treated preemergence with test chemicals formulated in a non-phytotoxic solvent mixture which included a surfactant.
(§4) At the same time, plants selected from these crop and weed species and also barley (winter barley, Hordeum vulgare), canarygrass (Phalaris minor), chickweed (common chickweed, Stellaria media) windgrass (Apera spica-venti) and deadnettle (henbit deadnettle, Lamium amplexicaule) were planted in pots containing Redi-Earth® planting medium (Scotts Company, 14111 Scottslawn Road, Marysville, Ohio 43041) comprising spaghnum peat moss, vermiculite, wetting agent and starter nutrients and treated with postemergence applications of test chemicals formulated in the same manner. Plants ranged in height from 2 to 18 cm (1- to 4-leaf stage) for postemergence treatments.
as §1, with “13” for “14”, “15” for “21”, “C,” for “E,”

[5] = system: Barnyardgrass; test: Test C postemergence: barnyardgrass; type: in vivo, Echinochloa crus-galli
From the text: as §4
as §1, with “13” for “14”, “15” for “21”, “C,” for “E,”

[6] = system: Waterhemp; test: Test C pre-/postemergence: waterhemp; type: in vivo
From the text: as §3, §4
as §1, with “13” for “14”, “15” for “21”, “C,” for “E,”

[7] = Preemergence, 16 g ai/ha, scale 0 to 100 (0 no effect, 100 complete control)
[8] = Preemergence, 31 g ai/ha, scale 0 to 100 (0 no effect, 100 complete control)
[9] = Preemergence, 62 g ai/ha, scale 0 to 100
[10] = Preemergence, 125 g ai/ha, scale 0 to 100
[11] = Postemergence, 8 g ai/ha, scale 0 to 100
[12] = Postemergence, 16 g ai/ha, scale 0 to 100
[13] = Postemergence, 31 g ai/ha, scale 0 to 100
[14] = Postemergence, 62 g ai/ha, scale 0 to 100
[15] = Postemergence, 125 g ai/ha, scale 0 to 100
[16] = Preemergence, 250 g ai/ha, scale 0 to 100, 0 no effect, 100 complete control
[17] = Preemergence, 250 g ai/ha, scale 0 to 100
[18] = 31 g ai/ha, scale 0 to 100 (0 no effect, 100 complete control)
[19] = 62 g ai/ha, scale 0 to 100 (0 no effect, 100 complete control)
[20] = Postemergence, 4 g ai/ha, scale 0 to 100
[21] = Preemergence, 4 g ai/ha, scale 0 to 100, 0 no effect, 100 complete control
[22] = Preemergence, 8 g ai/ha, scale 0 to 100, 0 no effect, 100 complete control
[23] = Postemergence, 31 g ai/ha, scale 0 to 100 (0 no effect, 100 complete control)

Structure (SMILES): Cc1nn(-c2ccc(F)cc2)nc1Cc1ccnc(C(F)(F)F)c1 [Compound 16, 4-[[2-(4-fluorophenyl)-5-methyl-2H-1,2,3-triazol-4-yl]methyl]-2-(trifluoromethyl)pyridine]
- Plant response rating: Panicum, Fall ([1]; Preemergence, 8 g ai/ha): 0
- Plant response rating: Panicum, Fall ([1]; Preemergence, 16 g ai/ha): 70
- Plant response rating: Panicum, Fall ([1]; Preemergence, 31 g ai/ha): 100
- Plant response rating: Panicum, Fall ([1]; Preemergence, 62 g ai/ha): 100
- Plant response rating: Panicum, Fall ([1]; Preemergence, 125 g ai/ha): 100

Structure (SMILES): Cc1nn(-c2ccc(C(F)(F)F)cc2)nc1Cc1ccnc(C(F)(F)F)c1 [Compound 47, 4-[[5-methyl-2-[4-(trifluoromethyl)phenyl]-2H-1,2,3-triazol-4-yl]methyl]-2-(trifluoromethyl)pyridine]
- Plant response rating: Panicum, Fall ([1]; Postemergence, 250 g ai/ha): 40
- Plant response rating: Panicum, Fall ([1]; Postemergence, 16 g ai/ha): 10
- Plant response rating: Panicum, Fall ([1]; Postemergence, 31 g ai/ha): 20
- Plant response rating: Panicum, Fall ([1]; Postemergence, 62 g ai/ha): 30
- Plant response rating: Panicum, Fall ([1]; Postemergence, 125 g ai/ha): 30
- Plant response rating: Panicum, Fall ([1]; Preemergence, 16 g ai/ha): 100
- Plant response rating: Panicum, Fall ([1]; Preemergence, 31 g ai/ha): 100
- Plant response rating: Panicum, Fall ([1]; Preemergence, 62 g ai/ha): 100
- Plant response rating: Panicum, Fall ([1]; Preemergence, 125 g ai/ha): 100
- Plant response rating: Panicum, Fall ([1]; Preemergence, 250 g ai/ha): 100

Structure (SMILES): Cc1nn(-c2ccc(F)cc2)nc1Oc1ccnc(C(F)(F)F)c1 [Compound 129, 4-[[2-(4-fluorophenyl)-5-methyl-2H-1,2,3-triazol-4-yl]oxy]-2-(trifluoromethyl)pyridine]
- Plant response rating: Panicum, Fall ([1]; Preemergence, 8 g ai/ha): 0
- Plant response rating: Panicum, Fall ([1]; Preemergence, 16 g ai/ha): 35
- Plant response rating: Panicum, Fall ([1]; Preemergence, 31 g ai/ha): 98
- Plant response rating: Panicum, Fall ([1]; Preemergence, 62 g ai/ha): 100
- Plant response rating: Panicum, Fall ([1]; Preemergence, 125 g ai/ha): 100

Structure (SMILES): Fc1ccc(-n2nc(Cc3ccnc(C(F)(F)F)c3)c(OCC(F)(F)F)n2)cc1 [Compound 142]
- Plant response rating, Barnyardgrass [2, 7]: 0
- Plant response rating, Barnyardgrass [2, 8]: 5
- Plant response rating, Barnyardgrass [2, 9]: 30
- Plant response rating, Barnyardgrass [2, 10]: 80

Structure (SMILES): Cc1nn(-c2ccc(F)c(F)c2)nc1Oc1ccnc(C(F)(F)F)c1 [Compound 145]
- Plant response rating, Barnyardgrass [2, 11]: 20
- Plant response rating, Barnyardgrass [2, 12]: 20
- Plant response rating, Barnyardgrass [2, 13]: 30
- Plant response rating, Barnyardgrass [2, 14]: 30
- Plant response rating, Barnyardgrass [2, 15]: 40
- Plant response rating, Crabgrass, Brazil [3, 11]: 15
- Plant response rating, Crabgrass, Brazil [3, 12]: 25
- Plant response rating, Crabgrass, Brazil [3, 13]: 40
- Plant response rating, Crabgrass, Brazil [3, 14]: 40
- Plant response rating, Crabgrass, Brazil [3, 15]: 50

Structure (SMILES): CCCc1nn(-c2ccc(F)cc2)nc1Cc1ccnc(C(F)(F)F)c1 [Compound 153]
- Plant response rating, Oilseed Rape [4, 16]: 98
- Plant response rating, Barnyardgrass [2, 7]: 5
- Plant response rating, Barnyardgrass [2, 8]: 10
- Plant response rating, Barnyardgrass [2, 9]: 10
- Plant response rating, Barnyardgrass [2, 10]: 75
- Plant response rating, Barnyardgrass [2, 17]: 100
- Plant response rating, Barnyardgrass [5, 18]: 20
- Plant response rating, Barnyardgrass [5, 19]: 35
- Plant response rating, Barnyardgrass ([5]; 250 g ai/ha, scale 0 to 100): 75
- Plant response rating, Crabgrass, Brazil [3, 7]: 98
- Plant response rating, Crabgrass, Brazil [3, 8]: 100
- Plant response rating, Crabgrass, Brazil [3, 9]: 100
- Plant response rating, Crabgrass, Brazil [3, 10]: 100
- Plant response rating, Crabgrass, Brazil [3, 17]: 100
- Plant response rating, Waterhemp [6, 16]: 100

Structure (SMILES): Cc1nn(-c2ccc(C(F)(F)F)c(F)c2)nc1Cc1ccnc(C(F)(F)F)c1 [Compound 162]
- Plant response rating, Oilseed Rape [4, 16]: 100
- Plant response rating, Barnyardgrass [2, 20]: 10
- Plant response rating, Barnyardgrass [2, 11]: 10
- Plant response rating, Barnyardgrass [2, 12]: 10
- Plant response rating, Barnyardgrass [2, 13]: 25
- Plant response rating, Barnyardgrass [2, 14]: 35
- Plant response rating, Barnyardgrass [2, 21]: 0
- Plant response rating, Barnyardgrass [2, 22]: 20
- Plant response rating, Barnyardgrass [2, 7]: 20
- Plant response rating, Barnyardgrass [2, 8]: 30
- Plant response rating, Barnyardgrass [2, 9]: 30
- Plant response rating, Barnyardgrass [5, 18]: 20
- Plant response rating, Barnyardgrass [5, 19]: 65
- Plant response rating, Barnyardgrass ([5]; 250 g ai/ha, scale 0 to 100): 95
- Plant response rating, Crabgrass, Brazil [3, 20]: 15
- Plant response rating, Crabgrass, Brazil [3, 11]: 15
- Plant response rating, Crabgrass, Brazil [3, 12]: 15
- Plant response rating, Crabgrass, Brazil [3, 13]: 20
- Plant response rating, Crabgrass, Brazil [3, 14]: 30
- Plant response rating, Crabgrass, Brazil [3, 21]: 0
- Plant response rating, Crabgrass, Brazil [3, 22]: 100
- Plant response rating, Crabgrass, Brazil [3, 7]: 100
- Plant response rating, Crabgrass, Brazil [3, 8]: 100
- Plant response rating, Crabgrass, Brazil [3, 9]: 100
- Plant response rating, Waterhemp [6, 16]: 100

Structure (SMILES): CCc1nn(-c2ccc(F)cc2)nc1Oc1ccnc(C(F)(F)F)c1 [Compound 166]
- Plant response rating, Oilseed Rape [4, 23]: 5
- Plant response rating, Oilseed Rape [4, 16]: 100
- Plant response rating, Barnyardgrass [5, 18]: 10
- Plant response rating, Barnyardgrass [5, 19]: 25
- Plant response rating, Barnyardgrass ([5]; 250 g ai/ha, scale 0 to 100): 60
- Plant response rating, Waterhemp [6, 23]: 90

Structure (SMILES): CCCc1nn(-c2ccc(C(F)(F)F)c(F)c2)nc1Oc1ccnc(C(F)(F)F)c1 [Compound 185]
- Plant response rating, Oilseed Rape [4, 23]: 10
- Plant response rating, Oilseed Rape [4, 16]: 100
- Plant response rating, Barnyardgrass [5, 18]: 30
- Plant response rating, Barnyardgrass [5, 19]: 35
- Plant response rating, Barnyardgrass ([5]; 250 g ai/ha, scale 0 to 100): 80
- Plant response rating, Waterhemp [6, 23]: 90

Source: US9302999B2, “Substituted triazoles as herbicides” (E. I. DU PONT DE NEMOURS AND COMPANY, priority 2012, dated 2016)
